pIC50: −log10 of the molar value. Entries after “also recorded” stand apart in the source; their conditions may differ.
Experiments:
female C57BL/6 mice = experiment: Determination of maximum tolerated dose (MTD), serum calcium / hypercalcemia; conditions: for MTD (mice): oral daily for four days, highest dose without hypercalcemia (serum calcium>10.7 mg/dl); for MTD compared with the corresponding parent dihydroxy compound: (2) vs (1), (4) and (5) vs (3)
Procedure: (§1) The maximum tolerated dose of the vitamin D3 compounds of the invention were determined in eight week-old female C57BL/6 mice (3 mice/group) dosed orally (0.1 ml/mouse) with various concentrations of Vitamin D3 analogs daily for four days. Analogs were formulated in miglyol for a final concentration of 0.01, 0.03, 0.1 0.3, 1, 3, 10, 30, 100 and 300 μg/kg when given at 0.1 ml/mouse p.o. daily. Blood for serum calcium assay was drawn by tail bleed on day five, the final day of the study.

[1] = as above; conditions: female, C57BL/6, mouse, serum, po
Procedure: as §1

[2] = test system: IFN-γ production in allogeneic PBMC co-culture (MLR); experiment: IFN-γ production by allogeneic T cell activation in the mixed leukocyte response (MLR), ELISA; type: cell-based; conditions: 120 h, 5 days, read-out: INF-γ IC50
Procedure: Immature dendritic cells. (DC) were prepared as described in Romani, N. et al. (Romani, N. et al. (1996) J. Immunol. Meth. 196:137). IFN-γ production by allogeneic T cell activation in the mixed leukocyte response (MLR) was determined as described in Penna, G., et al., J Immunol., 164: 2405-2411 (2000).
Briefly, peripheral blood mononuclear cells (PBMC) were separated from buffy coats by Ficoll gradient and the same number (3×10^5) of allogeneic PBMC from 2 different donors were co-cultured in 96-well flat-bottom plates. The vitamin D3 compounds were added to each of the cultures.

[3] = test system: EAU-susceptible B10.RIII mice; experiment: Experimental autoimmune uveoretinitis (EAU) induced with IRBP in CFA; type: in vivo; conditions: for Prevention of EAU: administered from day −6 to 2
Text: EAU an autoimmune disease mediated by Th1-type uveitogenic CD4+ T cells serves as a model for human posterior uveitis. […] EAU development was followed by funduscopy and confirmed by histopathology on eyes collected 21 days after immunization.

[4] = test system: primed lymph node cells (LN); experiment: In vitro assay of primed lymph node cells (LN) from EAU mice: proliferation, polarization, cytokine and chemokine release; type: cell-based; conditions: for Inhibition of specific T cell proliferation and T cell polarization: primed lymph node cells, FIG. 4
Text: It can be concluded that delayed hypersensitivity to IRBP in treated mice is correlated with disease severity. […] Preventive treatment remarkably diminished both IFN-gamma and IL-17 production by LN.
In consistency with disease amelioration, Ag driven chemokine release, such as MIP-1a, Rantes and TARC, is inhibited by Vitamin D3 derivatives as shown in FIG. 5. The further mechanism(s) involved in inhibition of EAU by VDR agonists are being investigated.

## CC(CC#CC(O)(C(F)(F)F)C(F)(F)F)C1=CCC2C(=CC=C3CC(O)CC(O)C3)CCCC12C (stereo not drawn) [(3), 1,25-dihydroxy-16-ene-23-yne-26,27-hexafluoro-19-nor-cholecalciferol, reference compound]
Female C57BL/6 mice
  MTD (mice): 0.3 µg/kg

## CC(=O)OC1C/C(=C/C=C2\CCC[C@@]3(C)C2CCC3C2(CC#CC(O)(C(F)(F)F)C(F)(F)F)CC2)C[C@@H](OC(C)=O)C1 (stereo partly drawn) [(27), 1,3-Di-O-acetyl-1,25-dihydroxy-20-cyclopropyl-23-yne-26,27-hexafluoro-19-nor-cholecalciferol]
Female C57BL/6 mice
  MTD (mice): 10 µg/kg

## C=C1/C(=C\C=C2/CCC[C@]3(C)C(C(C)CC#CC(O)(C(F)(F)F)C(F)(F)F)=CCC23)CC(OC(C)=O)C[C@@H]1OC(C)=O (stereo partly drawn) [(14), 1,3-Di-O-acetyl-1,25-dihydroxy-16-ene-23-yne-26,27-hexafluoro-cholecalciferol]
Female C57BL/6 mice
  MTD (mice): 10 µg/kg

## C=C1/C(=C\C=C2/CCC[C@]3(C)C(C(C)CC#CC(C)(C)O)=CCC23)CC(OC(C)=O)C[C@@H]1OC(C)=O (stereo partly drawn) [(7), 1,3-Di-O-acetyl-1,25-dihydroxy-16-ene-23-yne-cholecalciferol]
Female C57BL/6 mice
  MTD (mice): 10 µg/kg

## CC(=O)OC1C/C(=C/C=C2\CCC[C@]3(C)C(C(C)CC#CC(O)(C(F)(F)F)C(F)(F)F)=CCC23)C[C@@H](OC(C)=O)C1 (stereo partly drawn) [(4), 1,3-Di-O-acetyl-1,25-Dihydroxy-16-ene-23-yne-26,27-hexafluoro-19-nor-cholecalciferol]
Female C57BL/6 mice
  MTD compared with the corresponding parent dihydroxy compound: considerably-greater; also recorded: significantly higher
  MTD (mice): 10 µg/kg

## CC(=O)OC1C/C(=C/C=C2\CCC[C@]3(C)C(C(C)CCCC(C)(C)O)=CCC23)C[C@@H](OC(C)=O)C1 (stereo partly drawn) [(18), 1,3-Di-O-acetyl-1,25-dihydroxy-16-ene-19-nor-cholecalciferol]
[1]
  MTD at 4 days: 3 µg/kg
[2]
  pIC50: 11.52

## C=C1/C(=C\C=C2/CCC[C@@]3(C)C2CCC3C2(CC#CC(C)(C)O)CC2)CC(OC(C)=O)C[C@@H]1OC(C)=O (stereo partly drawn) [(29), 1,3-Di-O-acetyl-1,25-dihydroxy-20-cyclopropyl-23-yne-cholecalciferol]
Female C57BL/6 mice
  MTD (mice): 30 µg/kg

## CC(=O)OC1C/C(=C/C=C2\CCC[C@@]3(C)C2CCC3C2(CC#CC(OC(C)=O)(C(F)(F)F)C(F)(F)F)CC2)C[C@@H](OC(C)=O)C1 (stereo partly drawn) [(26), 1,3,25-Tri-O-acetyl-1,25-dihydroxy-20-cyclopropyl-23-yne-26,27-hexafluoro-19-nor-cholecalciferol]
Female C57BL/6 mice
  MTD (mice): 10 µg/kg

## C=C1/C(=C\C=C2/CCC[C@]3(C)C(C(C)CC#CC(OC(C)=O)(C(F)(F)F)C(F)(F)F)=CCC23)CC(OC(C)=O)C[C@@H]1OC(C)=O (stereo partly drawn) [(13), 1,3,25-Tri-O-acetyl-1,25-dihydroxy-16-ene-23-yne-26,27-hexafluoro-cholecalciferol]
Female C57BL/6 mice
  MTD (mice): 3 µg/kg

## CC(=O)OC1C/C(=C/C=C2\CCC[C@@]3(C)C2CCC3C2(C/C=C\C(O)(C(F)(F)F)C(F)(F)F)CC2)C[C@@H](OC(C)=O)C1 (stereo partly drawn) [(33), 1,3-Di-O-acetyl-1,25-dihydroxy-20-cyclopropyl-23Z-ene-26,27-hexafluoro-19-nor-cholecalciferol]
[1]
  MTD at 4 days: 10 µg/kg
[2]
  pIC50: 10.00

## C=C1/C(=C\C=C2/CCC[C@]3(C)C(C4(CCCC(C)(C)O)CC4)=CCC23)CC(OC(C)=O)C[C@@H]1OC(C)=O (stereo partly drawn) [(39), 1,3-Di-O-acetyl-1α,25-hydroxy-16-ene-20-cyclopropyl-cholecalciferol]
Female C57BL/6 mice
  MTD (mice): 3 µg/kg

## C=C1/C(=C\C=C2/CCC[C@]3(C)C(C(C)C/C=C/[C@@](C)(O)C(F)(F)F)=CCC23)CC(OC(C)=O)C[C@@H]1OC(C)=O (stereo partly drawn) [(16), 1,3-Di-O-acetyl-1,25-dihydroxy-16,23E-diene-25R,26-trifluoro-cholecalciferol]
[1]
  MTD at 4 days: 0.3 µg/kg
[2]
  pIC50: 10.29

## CC(=O)OC1C/C(=C/C=C2\CCC[C@@]3(C)C2CCC3C2(C/C=C/C(O)(C(F)(F)F)C(F)(F)F)CC2)C[C@@H](OC(C)=O)C1 (stereo partly drawn) [(31), 1,3-Di-O-acetyl-1,25-dihydroxy-20-cyclopropyl-23E-ene-26,27-hexafluoro-19-nor-cholecalciferol]
Female C57BL/6 mice
  MTD (mice): 0.3 µg/kg

## CC(=O)OC1C/C(=C/C=C2\CCC[C@]3(C)C(C(C)CC#CC(OC(C)=O)(C(F)(F)F)C(F)(F)F)=CCC23)C[C@@H](OC(C)=O)C1 (stereo partly drawn) [(5), 1,3,25-Tri-O-acetyl-1,25-Dihydroxy-16-ene-23-yne-26,27-hexafluoro-19-nor-cholecalciferol]
Female C57BL/6 mice
  MTD compared with the corresponding parent dihydroxy compound: considerably-greater; also recorded: significantly higher
  MTD (mice): 3 µg/kg

## CC(=O)OC1C/C(=C/C=C2\CCC[C@@]3(C)C2CCC3C2(CC#CC(C)(C)O)CC2)C[C@@H](OC(C)=O)C1 (stereo partly drawn) [(24), 1,3-Di-O-acetyl-1,25-dihydroxy-20-cyclopropyl-23-yne-19-nor-cholecalciferol]
[1]
  MTD at 4 days: 100 µg/kg
[2]
  pIC50: 9.10

## C=C1/C(=C\C=C2/CCC[C@]3(C)C(C(C)CCCC(C)(C)O)=CCC23)CC(OC(C)=O)C[C@@H]1OC(C)=O (stereo partly drawn) [(11), 1,3-Di-O-acetyl-1,25-dihydroxy-16-ene-cholecalciferol]
[1]
  MTD at 4 days: 1 µg/kg
[2]
  pIC50: 10.44

## C=C1/C(=C\C=C2/CCC[C@@]3(C)C2CCC3C2(CCCC(C)(C)O)CC2)C[C@@H](OC(C)=O)C[C@@H]1OC(C)=O (stereo partly drawn) [Compound (35), 1,3-Di-O-acetyl-1,25-dihydroxy-20-cyclopropyl-cholecalciferol]
[3]; Compound A 10 μg/kg orally, listed as Compound A
  Prevention of EAU: can prevent EAU; also recorded: capable of preventing
[3]; treatment started 7 days after immunization, listed as Compound A
  Inhibition of EAU development, therapeutic treatment: could inhibit EAU development; also recorded: treating EAU
[1]
  MTD at 4 days: 30 µg/kg
[4]
  Inhibition of specific T cell proliferation and T cell polarization: potent
[4]; therapeutic administration
  IFN-g production: not
  IL-17 production: markedly inhibited
[2]
  pIC50: 11.57

## CC(=O)OC1C/C(=C/C=C2\CCC[C@]3(C)C(C(C)CC#CC(C)(C)O)=CCC23)C[C@@H](OC(C)=O)C1 (stereo partly drawn) [(20), 1,3-Di-O-Acetyl-1,25-dihydroxy-16-ene-23-yne-19-nor-cholecalciferol]
[1]
  MTD at 4 days: 30 µg/kg
[2]
  pIC50: 10.60

## CC(=O)OC1C/C(=C/C=C2\CCC[C@]3(C)C(C(C)C/C=C\C(O)(C(F)(F)F)C(F)(F)F)=CCC23)C[C@@H](OC(C)=O)C1 (stereo partly drawn) [(2), 1,3-Di-O-acetyl-1,25-dihydroxy-16,23Z-diene-26,27-hexafluoro-19-nor-cholecalciferol]
Female C57BL/6 mice
  MTD compared with the corresponding parent dihydroxy compound: significantly higher

## C=C1/C(=C\C=C2/CCC[C@]3(C)C(C(C)C/C=C/C(C)(C)O)=CCC23)CC(OC(C)=O)C[C@@H]1OC(C)=O (stereo partly drawn) [(9), 1,3-Di-O-acetyl-1,25-dihydroxy-16,23E-diene-cholecalciferol]
[1]
  MTD at 4 days: 3 µg/kg
[2]
  pIC50: 10.89

## CC(=O)OC1C/C(=C/C=C2\CCC[C@]3(C)C(C4(CCCC(C)(C)O)CC4)=CCC23)C[C@@H](OC(C)=O)C1 (stereo partly drawn) [(37), 1,3-Di-O-acetyl-1α,25-dihydroxy-16-ene-20-cyclopropyl-19-nor-cholecalciferol]
Female C57BL/6 mice
  MTD (mice): 10 µg/kg

## C=C1/C(=C\C=C2/CCC[C@@]3(C)C2CCC3C(C)CC#CC(C)(C)O)CC(OC(C)=O)C[C@@H]1OC(C)=O (stereo partly drawn) [(41), 1,3-Di-O-acetyl-1,25-dihydroxy-23-yne-cholecalciferol]
Female C57BL/6 mice
  MTD (mice): 1 µg/kg

## C=C1/C(=C\C=C2/CCC[C@]3(C)[C@@H]([C@H](C)CCCC(C)(C)O)CC[C@@H]23)C[C@@H](O)C[C@@H]1O [1,25(OH)2D3, calcitriol, reference compound]
[3]; calcitriol 0.5 μg/kg orally
  Prevention of EAU: can prevent EAU; also recorded: effectively prevents EAU
[1]
  MTD at 4 days: 1 µg/kg
[4]
  Inhibition of specific T cell proliferation and T cell polarization: potent
[2]
  pIC50: 10.66

## CCC(O)(C#CCC(C)C1=CCC2/C(=C/C=C3/CC(OC(C)=O)C[C@H](OC(C)=O)C3)CCC[C@]12C)CC (stereo partly drawn) [(22), 1,3-Di-O-acetyl-1,25-dihydroxy-16-ene-23-yne-26,27-bishomo-19-nor-cholecalciferol]
Female C57BL/6 mice
  MTD (mice): 100 µg/kg

From patent publication US20060258630A1, “Method for the prevention and treatment of uveitis” (BioXell S.p.A., priority 2003, published 2006)
